Measurements: patent EP2801357A1, “Carboxylated stilbenes for activating AMPK and sirtuins” (IMD Natural Solutions GmbH, priority 2013, dated 2014)
Marks after values point to notes of the source that are not given here.

Assays:
Sirt2 = target: T1, Sirt2 (Homo sapiens, UniProt Q8IXJ6); experiment: SIRT2 Fluorimetric Drug Discovery Kit, Sirt2 activation; type: biochemical
T1 construct: purchased BioMol, Hamburg, Germany
T1 sequence (Q8IXJ6 1-389): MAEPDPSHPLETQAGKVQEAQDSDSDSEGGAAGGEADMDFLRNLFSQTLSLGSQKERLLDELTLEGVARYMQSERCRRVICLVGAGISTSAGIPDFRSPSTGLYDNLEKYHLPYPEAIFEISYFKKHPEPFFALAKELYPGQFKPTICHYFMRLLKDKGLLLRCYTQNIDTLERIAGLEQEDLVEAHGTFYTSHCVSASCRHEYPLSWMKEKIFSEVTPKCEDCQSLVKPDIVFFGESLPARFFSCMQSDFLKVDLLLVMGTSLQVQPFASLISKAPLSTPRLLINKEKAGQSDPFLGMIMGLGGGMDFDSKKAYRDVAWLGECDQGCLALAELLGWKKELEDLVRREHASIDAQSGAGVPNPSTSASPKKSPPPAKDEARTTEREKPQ

Sirt3 = target: T2, Sirt3 (Homo sapiens, UniProt Q9NTG7); experiment: SIRT3 Fluorimetric Drug Discovery Kit, Sirt3 activation; type: biochemical
T2 construct: purchased BioMol, Hamburg, Germany
T2 sequence (Q9NTG7 1-399): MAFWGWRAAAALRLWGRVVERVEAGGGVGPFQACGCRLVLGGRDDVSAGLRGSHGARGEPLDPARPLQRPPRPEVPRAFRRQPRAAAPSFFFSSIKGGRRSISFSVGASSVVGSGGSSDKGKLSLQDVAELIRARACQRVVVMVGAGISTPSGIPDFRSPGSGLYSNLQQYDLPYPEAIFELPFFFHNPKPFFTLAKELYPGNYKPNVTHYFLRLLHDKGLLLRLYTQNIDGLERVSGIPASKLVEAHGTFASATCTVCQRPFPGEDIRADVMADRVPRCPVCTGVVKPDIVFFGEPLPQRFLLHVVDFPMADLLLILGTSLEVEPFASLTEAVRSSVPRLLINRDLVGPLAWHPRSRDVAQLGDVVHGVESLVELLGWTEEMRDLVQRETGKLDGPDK

[1] = test system: 5'-AMP-activated protein kinase (AMPK); experiment: Western blot analysis of AMPK phosphorylation in NHEK; type: cell-based, human; details: 48 h;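 on P-AMPK: Chemiluminescence band density of P-AMPK measured with Multigauge software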
[2] = test system: normal human epidermal keratinocytes (NHEK); experiment: MTT reduction assay, cytotoxicity in NHEK; type: cell-based
Description: Culture conditions: 37 °C, 5 % CO2. Culture medium: Keratinocyte-SFM (serum-free medium) containing human recombinant epidermal growth factor (EGF 1-53) 0.25 ng/mL and bovine pituitary extract 25 µg/mL (Gibco; Cat. No. 17005-075), supplemented with gentamycin 25 µg/mL. Assay medium: Keratinocyte-SFM (Gibco; Cat. No. 10744-019), supplemented with gentamycin 25 µg/mL.
NHEK were seeded in 24-well plates (30.000 cells / well) and cultured in culture medium for 24 h and then in assay medium for another 24 h. Medium was then removed and replaced by assay medium containing the respective test compound or reference in defined concentrations.
Cytotoxicity was determined using the 3-(4,5-dimethylthiazol-2-yl)-2,5-diphenyltetrazoliumbromid (MTT) reduction assay (sse T. Mosmann (1983) J. Immunol. Methods. 65, pp. 55-63).

[3] = test system: normal human dermal fibroblasts (NHDF); experiment: Mitochondria content of NHDF, Mito-ID Green Detection Kit; type: cell-based
Description: (§1) The effect of compound (I-1) on mitochondria biosynthesis was investigated in normal human dermal fibroblasts (NHDF). NHDF were obtained from PromoCell (Lot No. 006151; donor; from eyelid skin) and cultivated in Fibroblast Growth Medium (PromoCell; Cat. No. C-023020) supplemented with Supplement Mix (PromoCell; Cat. No. C-039215) at 37 °C /5% CO2. NHDF were seeded in flat-bottom 96-well plates (5000 cells / well) and incubated in said medium for 24 h or 48 h, respectively, with the compounds present in concentrations ranging from 0.03 µM to 200 µM. Mitochondria content was analyzed using the Mito-ID® Green Detection Kit for fluorescence microscopy (Enzo Life Sciences; Cat. No. ENZ-51055-K500). Fluorometric analysis was done using a Spectramax plate reader (Molecular Devices) and following the manufacturer's protocol. Cytotoxicity was determined in parallel by fluorometric readout using the Resazurin Based In Vitro Toxicology Assay Kit (Sigma Aldrich, Cat. No. TOX-8), and following the manufacturer's protocol.

[4] = test system: normal human dermal fibroblasts (NHDF); experiment: Resazurin based cytotoxicity assay in NHDF; type: cell-based; details: 24 h and 48 h, 0.03 µM to 200 µM
Description: as §1

[5] = Experiment 1, Membrane 1, 10 µM
[6] = Experiment 1, Membrane 1, 30 µM

CCOC(=O)c1c(O)cccc1/C=C/c1ccc(OCC)cc1 [(I-1)]
remaining activity at 0.3 µM (Sirt2; Example 2, Table 4, 0.3 µM, read-out: Activity [% control]): 114%
remaining activity at 1 µM (Sirt2; Example 2, Table 4, 1.0 µM, read-out: Activity [% control]): 142%
remaining activity at 3 µM (Sirt2; Example 2, Table 4, 3.0 µM, read-out: Activity [% control]): 204%
remaining activity at 10 µM (Sirt2; Example 2, Table 4, 10.0 µM, read-out: Activity [% control]): 530%
remaining activity at 30 µM (Sirt2; Example 2, Table 4, 30.0 µM, read-out: Activity [% control]): 914%
EC300 (Sirt2; Example 2, Table 6, Sirt2): 4.9 µM
remaining activity at 0.3 µM (Sirt3; Example 2, Table 5, 0.3 µM, read-out: Activity [% control]): 109%
remaining activity at 1 µM (Sirt3; Example 2, Table 5, 1.0 µM, read-out: Activity [% control]): 124%
remaining activity at 3 µM (Sirt3; Example 2, Table 5, 3.0 µM, read-out: Activity [% control]): 156%
remaining activity at 10 µM (Sirt3; Example 2, Table 5, 10.0 µM, read-out: Activity [% control]): 216%
remaining activity at 30 µM (Sirt3; Example 2, Table 5, 30.0 µM, read-out: Activity [% control]): 247%
EC300 (Sirt3; Example 2, Table 6, Sirt3, footnote for (I-1): clear activation in dose-response curve visible): >30* µM
AMPK phosphorylation [% Control] ([1]; Experiment 1, Membrane 1, 3 µM): 60 % Control
P-AMPK ([1]; Experiment 1, Membrane 1, 3 µM): 123 AU/mm^2
Ratio P-AMPK/ GAPDH ([1]; Experiment 1, Membrane 1, 3 µM): 0.26
AMPK phosphorylation [% Control] [1, 5]: 90 % Control
P-AMPK [1, 5]: 202 AU/mm^2
Ratio P-AMPK/ GAPDH [1, 5]: 0.38
AMPK phosphorylation [% Control] [1, 6]: 1006 % Control
P-AMPK [1, 6]: 2554 AU/mm^2
Ratio P-AMPK/ GAPDH [1, 6]: 4.26
cytotoxicity against NHEK [2]: no cytotoxicity
Signal intensity [% Control] ([3]; 24 h incubation time, 0.03 µM): 100 % Control
Signal intensity [% Control] ([3]; 24 h incubation time, 0.09 µM): 99 % Control
Signal intensity [% Control] ([3]; 24 h incubation time, 0.27 µM): 100 % Control
Signal intensity [% Control] ([3]; 24 h incubation time, 0.82 µM): 101 % Control
Signal intensity [% Control] ([3]; 24 h incubation time, 2.47 µM): 103 % Control
Signal intensity [% Control] ([3]; 24 h incubation time, 7.41 µM): 114 % Control
Signal intensity [% Control] ([3]; 24 h incubation time, 22.22 µM): 182 % Control
Signal intensity [% Control] ([3]; 24 h incubation time, 66.67 µM): 354 % Control
Signal intensity [% Control] ([3]; 24 h incubation time, 200.00 µM): 906 % Control
Signal intensity [% Control] ([3]; 48 h incubation time, 0.03 µM): 97 % Control
Signal intensity [% Control] ([3]; 48 h incubation time, 0.09 µM): 92 % Control
Signal intensity [% Control] ([3]; 48 h incubation time, 0.27 µM): 91 % Control
Signal intensity [% Control] ([3]; 48 h incubation time, 0.82 µM): 93 % Control
Signal intensity [% Control] ([3]; 48 h incubation time, 2.47 µM): 94 % Control
Signal intensity [% Control] ([3]; 48 h incubation time, 7.41 µM): 103 % Control
Signal intensity [% Control] ([3]; 48 h incubation time, 22.22 µM): 147 % Control
Signal intensity [% Control] ([3]; 48 h incubation time, 66.67 µM): 293 % Control
Signal intensity [% Control] ([3]; 48 h incubation time, 200.00 µM): 765 % Control
concentrations with significant enhancement of mitochondria biosynthesis ([3]; NHDF, 24 h and 48 h): ≥ 10 µM
cytotoxicity or loss of cell viability [4]: no cytotoxicity or loss of cell viability
